Measured values from patent publication EP1683514B1, “Process for the preparation of concentrated suspensions of drugs and kit thereof” (Eratech S.r.l., priority 2005, dated 2006).

Columns and labels:
[1] = Purity test after β or γ irradiation (degradation of the pharmaceutical substance); format: physicochemical; conditions: powder
Procedure: A test of microbial count was then carried out on the irradiated suspensions to determine if a satisfactory sterility was achieved. A purity test was also carried out to determine if any degradation of the pharmaceutical substance budesonide was provoked by the irradiation treatment. As a comparison, a test of microbial count and purity was carrier out also on a sample of micronized budesonide powder. A test of microbial count was then carried out on the irradiated suspensions to determine if a satisfactory sterility was achieved. A purity test was also carried out to determine if any degradation of the pharmaceutical substance BDP was provoked by the irradiation treatment. As a comparison, a test of microbial count and purity was carrier out also on a sample of micronized BDP powder.

[2] = Particle size distribution of the micronized powder; format: physicochemical
Procedure: Micronized Beclomethasone Dipropionate (BDP) powder was added slowly under stirring the solution so obtained. The micronized powder had the following particle size distribution: d(0.1) 0.44 µm, d(0.5) 1.13 µm e d(0.9) 2.42 µm.
Micronized Budesonide powder was added slowly under stirring the solution so obtained. The micronized powder had the following particle size distribution: d(0.1) 0.50 µm, d(0.5) 1.39µm; d(0.9) 3.15 µm.
180 mg of BDP micronized powder were added to the solution so prepared. PSD of the powder was: d(0.1) 0.44 µm, d(0.5) 1.13 µm e d(0.9) 2.42 µm, namely the same PSD of the BDP powder used to prepare the concentrated suspensions of examples 1 - 4.

Purity ([1]; BETA IRRADIATION 0 KGy): 99.73%
Purity ([1]; BETA IRRADIATION 2 KGy): 99.73%
Purity ([1]; BETA IRRADIATION 4 KGy): 99.66%
Purity ([1]; BETA IRRADIATION 6 KGy): 99.67%
Purity ([1]; BETA IRRADIATION 8 KGy): 99.51%
Purity ([1]; BETA IRRADIATION 10 KGy): 99.49%
Purity ([1]; GAMMA IRRADIATION 0 KGy): 99.73%
Purity ([1]; GAMMA IRRADIATION 2 KGy): 99.73%
Purity ([1]; GAMMA IRRADIATION 4 KGy): 99.68%
Purity ([1]; GAMMA IRRADIATION 6 KGy): 99.70%
Purity ([1]; GAMMA IRRADIATION 8 KGy): 99.07%
particle size distribution d(0.1) [2]: 0.44 µm
particle size distribution d(0.5) [2]: 1.13 µm
particle size distribution d(0.9) [2]: 2.42 µm
Compound: CCC(=O)OCC(=O)[C@@]1(OC(=O)CC)[C@@H](C)C[C@H]2[C@@H]3CCC4=CC(=O)C=C[C@]4(C)[C@@]3(Cl)[C@@H](O)C[C@@]21C [BDP Powder, Beclomethasone Dipropionate]
